Residue numbers refer to the chain shown, from its start.
Experiments:
Test in all cases: ATP hydrolysis, [γ-32P]-ATP TLC, Michaelis-Menten fit
Format in all cases: biochemical
Conditions in all cases: M13 ssDNA 1.5 μM nt, 10 nM Pif1, 5 mM MgCl2, 60 mM KCl, pH 7.5, 30 °C, no RPA; labelled compound as tracer
GFP-Pif1 [1] = molecular target: T1, GFP-Pif1 (Saccharomyces cerevisiae, UniProt P07271, K312A)
T1 construct: N-terminal superfolder GFP fusion of nuclear isoform residues 40-859, pRSF-Duet-1, E. coli Rosetta2(DE3), Ni-NTA purified
T1 sequence (P07271 40-859 K312A): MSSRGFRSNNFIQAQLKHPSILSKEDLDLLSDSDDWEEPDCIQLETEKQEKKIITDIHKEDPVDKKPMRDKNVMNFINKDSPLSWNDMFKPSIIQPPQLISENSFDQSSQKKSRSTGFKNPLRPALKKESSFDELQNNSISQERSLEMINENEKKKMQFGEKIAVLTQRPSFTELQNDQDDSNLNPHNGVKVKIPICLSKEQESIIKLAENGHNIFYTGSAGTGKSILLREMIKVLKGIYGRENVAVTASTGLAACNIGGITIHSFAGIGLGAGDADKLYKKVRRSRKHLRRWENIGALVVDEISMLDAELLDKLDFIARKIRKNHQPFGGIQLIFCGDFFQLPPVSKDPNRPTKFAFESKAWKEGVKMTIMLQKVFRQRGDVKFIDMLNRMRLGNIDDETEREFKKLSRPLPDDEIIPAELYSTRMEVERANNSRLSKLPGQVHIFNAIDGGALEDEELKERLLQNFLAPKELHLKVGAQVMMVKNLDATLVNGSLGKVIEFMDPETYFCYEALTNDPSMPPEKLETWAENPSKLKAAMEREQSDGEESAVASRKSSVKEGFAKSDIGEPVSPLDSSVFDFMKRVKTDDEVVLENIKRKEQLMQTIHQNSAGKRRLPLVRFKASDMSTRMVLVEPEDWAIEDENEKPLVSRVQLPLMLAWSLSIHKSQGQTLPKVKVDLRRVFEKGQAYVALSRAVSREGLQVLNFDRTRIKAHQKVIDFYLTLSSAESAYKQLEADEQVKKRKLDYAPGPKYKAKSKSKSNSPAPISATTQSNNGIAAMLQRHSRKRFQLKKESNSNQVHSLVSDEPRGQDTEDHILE
Protocol: (§1) ATP hydrolysis, [γ-32P]-ATP TLC, Michaelis-Menten fit on GFP-Pif1 | each of the mutant proteins was tested for ATPase activity

GFP-Pif1 [2] = molecular target: T2, GFP-Pif1 (Saccharomyces cerevisiae, UniProt P07271, H303A)
T2 construct: N-terminal superfolder GFP fusion of nuclear isoform residues 40-859, pRSF-Duet-1, E. coli Rosetta2(DE3), Ni-NTA purified
T2 sequence (P07271 40-859 H303A): T1 sequence (P07271 40-859 K312A) with H264A, A273K
Protocol: as §1

GFP-Pif1 [3] = molecular target: T3, GFP-Pif1 (Saccharomyces cerevisiae, UniProt P07271, E724A)
T3 construct: N-terminal superfolder GFP fusion of nuclear isoform residues 40-859, pRSF-Duet-1, E. coli Rosetta2(DE3), Ni-NTA purified
T3 sequence (P07271 40-859 E724A): T1 sequence (P07271 40-859 K312A) with A273K, E685A
Protocol: as §1

- Km (GFP-Pif1 [1]): 380 ± 310 µM
- Km (GFP-Pif1 [2]): 870 ± 1320 µM
- Km (GFP-Pif1 [3]): 1470 ± 1370 µM
SMILES: Nc1ncnc2c1ncn2[C@@H]1O[C@H](COP(=O)(O)OP(=O)(O)OP(=O)(O)O)[C@@H](O)[C@H]1O [ATP]
